# Assay results as given in patent US8507446B2, “Use of PEDF-derived polypeptides for treating liver cirrhosis” (MacKay Memorial Hospital, priority 2011, dated 2013).
# Key:
# HSC-T6 cells = assay: PPARγ induction and PPARγ siRNA reversal in HSC-T6 cells; type: cell-based, rat
# Method: HSC-T6 cells, a rat immortalized HSC, retained all features of activated HSCs and was kindly provided by Dr. Friedman S L (Kim et al., J Biol Chem 1998 273:33750-33758). HSC-T6 cells were grown in Waymouth medium supplemented with 10% FBS at 37° C. in a humidified atmosphere of 5% CO2.
# The total RNA was extracted from cells using the TRIzol (Invitrogen, Carlsbad, Calif.). […] The intensities of the PCR products were quantified using a FUJI LAS-3000 densitometer and Multi Gauge Ver. […]
# Cells were scraped into lysis buffer (150 μL/35-mm well) containing 20 mM HEPES (pH 7.4), 1% SDS, 150 mM NaCl, 1 mM EGTA, 5 mM β-glycerophosphate, 10 mM sodium pyrophosphate, 10 mM sodium fluoride, […] sodium orthovanadate, 10 μg/mL leupeptin, and 10 μg/mL aprotinin. […] Proteins of interest were detected using the appropriate IgG-HRP secondary antibody and ECL reagent. X-ray films were scanned on a Model GS-700 Imaging Densitometer (Bio-Rad Laboratories, Hercules, Calif.) and analyzed using Labworks 4.0 software. For quantification, blots from at least three independent experiments were used. […]
# [1] = tested on: liver-derived progenitor cells (LDPCs) in primary rat liver cells; assay: Clonogenic capacity of liver cells (LDPC colony formation); type: cell-based; conditions: basal medium with 4.5 nM PEDF, 50 nM 34-mer, 50 nM 44-mer or 10% FBS; after 11 days in culture
# Method: (§1) Liver cells from Sprague Dawley rats were harvested by 2-step in situ collagenase perfusion technique. The cells were then washed in phosphate buffered saline and centrifuged (50 g for 5 minutes) twice at room temperature. The cells were not further subjected to any fractionation as previously described (Sahin M B et al., Liver Transpl. 2008 14(3):333-45). Freshly isolated rat liver cells were cultured in a medium consisting of 75% Dulbecco's modified Eagle's medium (DMEM) and 25% MCDB 201 (Sigma-Aldrich) supplemented with 10% fetal bovine serum, 1 mg/mL of bovine serum albumin (BSA; Sigma), 100 μM of β-mercaptoethanol (Gibco, Carlsbad, Calif.), 25 mM of 4-2-hydroxyethyl-1-piperazineethanesulfonic acid (HEPES), 5 mM of Nicotinamide (Sigma-Aldrich), 1% SITE liquid medium (Sigma-Aldrich), and penicillin (100 μg/ml)/streptomycin (100 μg/ml; Invitrogen, Carlsbad, Calif.) on Type I collagen (Sigma, St. Louis, Mo.) coated tissue culture plates or dishes at a density of 1×10^4 cells/cm^2 at 37° C. in 5% CO2.
# To verify the function of 44-mer PEDF, primary rat liver cells were isolated in accordance with steps described above and cultivated (about 1×10^5 per well of 6-well plate; 1×10^4 cells/cm^2) in a conventional basal medium, which was further supplemented with 4.5 nM PEDF, 50 nM 34-mer PEDF, 50 nM 44-mer PEDF or 10% FBS. Medium was changed every 3 days. After being placed in culture for 11 days, clonogenic capacity of liver cells was continuously monitored by phase-contrast microscopy. During this time period, liver-derived progenitor cells (LDPCs) began markedly emerged in primary liver cultures while hepatocytes started dying out. Few colonies were formed by liver cells when continuously cultivated in basal medium, or medium supplemented with 34-mer or FBS.
# [2] = tested on: liver-derived progenitor cells (LDPCs); assay: Self-renewal of LDPCs over two passages and differentiation into hepatocytes; type: cell-based, rat; conditions: for autofluorescence (LDPC marker): 4.5 nM PEDF, 50 nM 34-mer or 50 nM 44-mer; for autofluorescence (LDPC marker) / self-renewal by expression of LDPC markers EpCAM and HNF3-β (immunoblot): two passages, 35 days; for ability of expanded LDPCs to differentiate into hepatocytes (albumin and CK-18 staining): immunofluorescence
# Method: as §1
# (§2) Deparaffinized liver tissue sections or 4% paraformaldehyde fixed HSCs were blocked with 10% goat serum and 5% BSA for 1 h. Dual staining was done using primary antibodies against human PEDF (se-59641; Santa Cruz Biotechnology, CA, USA) or α-SMA (ab5694 or ab7817; Abcam), PPARγ (sc-7273; Santa Cruz Biotechnology), albumin (sc-46295; Santa Cruz Biotechnology) or cytokeratin (CK) 18 (GTX112978; GeneTex, Inc.) at 37° C. for 2 h, followed by incubation with the appropriate rhodamine- or FITC-conjugated donkey IgG for 1 hr at room temperature. Nuclei were located by counterstaining with Hoechst 33258 for 7 min. Images were captured using a Zeiss epifluorescence microscope with a CCD camera.
# (§3) Cells were scraped into lysis buffer (150 μL/35-mm well) containing 20 mM HEPES (pH 7.4), 1% SDS, 150 mM NaCl, 1 mM EGTA, 5 mM β-glycerophosphate, 10 mM sodium pyrophosphate, 10 mM sodium fluoride, […] sodium orthovanadate, 10 μg/mL leupeptin, and 10 μg/mL aprotinin. The lysate was incubated on ice for 15 min. Total cell lysate was also separated into cytoplasmic and nuclear fractions using the NE-PER nuclear and cytoplasmic extraction kit (Pierce, Rockford, Ill.) according to the manufacturer's instructions. Each cellular fraction was then resolved by SDS-PAGE and then electrotransferred to polyvinylidene difluoride membranes (Millipore, Bedford, Mass.) and processed for immunoblot analysis. Antibodies used in the immunoblot study included human PEDF (sc-59641; Santa Cruz Biotechnology), mouse PEDF (sc-74253; Santa Cruz Biotechnology), type I collagen 1A1 (sc-25974; Santa Cruz Biotechnology), α-SMA (ab5694 or ab7817; Abcam), PPARγ••(sc-7273; Santa Cruz Biotechnology), MCP-1 (ab7202; Abcam Ltd), α-actin (Sigma), epithelial cell adhesion molecule (EpCAM; sc-66020; Santa Cruz Biotechnology), hepatocytes nuclear factor and (HVF)3-β (sc-6554; Santa Cruz Biotechnology). Proteins of interest were detected using the appropriate IgG-HRP secondary antibody and ECL reagent. X-ray films were scanned on a Model GS-700 Imaging Densitometer (Bio-Rad Laboratories, Hercules, Calif.) and analyzed using Labworks 4.0 software. For quantification, blots from at least three independent experiments were used.
# It has been reported that LDPCs may not be expanded in conventional basal medium, unless growth factor(s) were added therein (Sahin et al., Liver Transpl. 2008 14(3):333-45). To test the self-renewal property of PEDF derived peptides on LDPCs, liver cells were isolated and grown in separate medium including 4.5 nM (200 ng/ml) PEDF, 50 nM 34-mer or 50 nM 44-mer for two passages, which took a period of 35 days. The newly produced LDPCs in the cultured cells were confirmed by the detection of autofluorescence emitted therefrom; as well as two LDPC markers, which are epithelial cell adhesion molecule (EpCAM) and hepatocytes nuclear factor 3•••(HNF3)-β, by immunoblot analysis. […]
# [3] = tested on: culture-activated primary rat HSCs; assay: Activation of culture-activated primary hepatic stellate cells; type: cell-based; conditions: for Col1a1 expression (immunoblot) / MCP-1 expression (immunoblot) / amounts of PPARγ (immunoblot) / α-SMA expression (immunoblot): 48 hours vs solvent, 4.5 nM PEDF, 50 nM 34-mer, 50 nM 44-mer; for α-SMA by immunofluorescent staining: 34-mer compared with 44-mer PEDF treatment; for HSC morphology: phase contrast / immunofluorescence
# Method: Primary HSCs were isolated by in situ perfusion with collagenase and pronase from livers of male Sprague-Dawley rats (300-450 g), followed by a 25%/50% Percoll gradient centrifugation at 4° C. HSCs were isolated from the upper layer of the discontinuous Percoll density gradient as previously described method (Titos et al., FASEB J 2003 17:1745-1747). Then cells were re-suspended in Dulbecco's modified Eagle's medium (DMEM) supplemented with 10% fetal bovine serum (FBS) and 1% penicillin/streptomycin and plated on 100-mm plastic dishes. Cell purity was verified to be approximately 95-98% by vitamin A fluorescence on day 2 after isolation. HSCs were activated by culturing the cells on plastic for 10 days and then passaged by trypsin-EDTA treatment. Subsequently, the activated HSCs were incubated in 10% FBS-DMEM for 2 days and then used for further experiments.
# as §2, §3
# After treatment, primary rat HSCs were fixed for 2 h with 4% paraformaldehyde, washed by PBS and then permeabilized for 5 min with 0.1% Triton X-100. Changes in F-actin structures were detected by […] rhodamine-conjugated phalloidin (Sigma) for 1 h at room temperature. Stained F-actin was visualized using a Zeiss Axiovert 25 microscope.
# To verify whether the PEDF-derived peptides, particularly, 34-mer PEDF and 44-mer PEDF, may prevent HSCs from activation, culture-activated primary rat HSCs were treated with 4.5 nM PEDF, 50 nM 44-mer, 50 nM 34-mer or PEDF solvent (20 mM Tris/HCl, pH 7.4, 100 mM NaCl) for 48 hours. […] Immunofluorescent assay also confirmed that 34-mer PEDF reduced the levels of α-SMA in culture-activated HSCs as compared with 44-mer PEDF treatment (FIG. 6F). Such result is consistent with the finding in Example 1 that PEDF prevents HSCs from activation by induction of PPARγ.
Molecule,"suppressive effects of PEDF on HSC activation (α-SMA, Col1a1, MCP-1) (HSC-T6 cells; siRNA pretreatment 16 hours before PEDF, 10 nM siRNA)",colonies of LDPCs formed [1],autofluorescence (LDPC marker) [2],ability of expanded LDPCs to differentiate into hepatocytes (albumin and CK-18 staining) [2],self-renewal by expression of LDPC markers EpCAM and HNF3-β (immunoblot) [2],Col1a1 expression (immunoblot) [3],MCP-1 expression (immunoblot) [3],amounts of PPARγ (immunoblot) [3],α-SMA expression (immunoblot) [3],α-SMA by immunofluorescent staining ([3]; culture-activated HSCs),HSC morphology ([3]; culture-activated HSCs),"mRNA and protein expression of PPARγ (HSC-T6 cells; 48 hours, RT-PCR and immunoblot)","stress fiber (F-actin, rhodamine-phalloidin staining) ([3]; culture-activated HSCs)"
PPARγ siRNA: rat PPARγ siRNA (SEQ ID NO: 7/8) or a mixture of four rat PPARγ siRNAs (SMART-pools) (chain 1 CACCAUUUGUCAUCUACGATT; chain 2 UCGUAGAUGACAAAUGGUGTT; chemistry not given here) [reference compound],significantly reduced the suppressive effects of PEDF,–,–,–,–,–,–,–,–,–,–,–,–
Ac-VLLSPLSVATALSALSLGAEQRTESIIHRALTTDLISSPDIHGT-NH2 [44-mer PEDF],–,dense colonies,emitted autofluorescence,retain the ability of differentiating into hepatocyte,exhibits self-renewal property,does not possess such effects,does not possess such effects,does not possess such effects,does not possess such effects,–,–,–,–
"34-mer PEDF: synthetic human peptide, the segment of PEDF from amino acid residues 44 to 77 (Ac-DPFFKVPVNKLAAAVSNFGYDLYRVRSSTSPTTN-NH2)",–,Few colonies,very little autofluorescence or none at all,–,–,reduced,reduced,enhanced,reduced,reduced,causes reversal of the activated HSC morphology,–,–
"pigment-epithelium-derived factor (protein, UniProt P36955 20-418, looked up, pigment-epithelium-derived factor protein, used at 4.5 nM (200 ng/ml)) Pigment epithelium-derived …: QNPASPPEEGSPDPDSTGALVEEEDPFFKVPVNKLAAAVSNFGYDLYRVRSSTSPTTNVLLSPLSVATALSALSLGAEQRTESIIHRALYYDLISSPDIHGTYKELLDTVTAPQKNLKSASRIVFEKKLRIKSSFVAPLEKSYGTRPRVLTGNPRLDLQEINNWVQAQMKGKLARSTKEIPDEISILLLGVAHFKGQWVTKFDSRKTSLEDFYLDEERTVRVPMMSDPKAVLRYGLDSDLSCKIAQLPLTGSMSIIFFLPLKVTQNLTLIEESLTSEFIHDIDRELKTVQAVLTVPKLKLSYEGEVTKSLQEMKLQSLFDSPDFSKITGKPIKLTQVEHRAGFEWNEDGAGTTPSPGLQPAHLTFPLDYHLNQPFIFVLRDTDTGALLFIGKILDPRGP",–,dense colonies,emitted autofluorescence,retain the ability of differentiating into hepatocyte,exhibits self-renewal property,significantly reduced,significantly reduced,enhanced,significantly reduced,reduced,dendritic-like morphology with retracted cytoplasm,induced,reduced
